Consider two compounds from patent US7534806B2, “Method for treating neuropathic pain and associated syndromes” (Avigen, Inc., priority 2004, dated 2009).

“Also recorded” adds a separate entry of the source.

For data set [1], the system named is mechanical allodynia in rat chronic constriction injury (CCI) model. Kind of data set: von Frey test of mechanical allodynia in rat chronic constriction injury (CCI) model of neuropathic pain. Format: in vivo.
Data set [2] is described as follows: Dose selection study: rat tolerability to intraperitoneal ibudilast. In kind it is in vivo. The text has this: Dose Selection Study: Preliminary studies were designed to assess rat tolerability to single and multiple intraperitoneal administrations of ibudilast. […] These included extended head, increased respiratory rate, occasional circling behavior and vocalization, and lethargy.

The test system of data set [3] is astrocyte activation (Glial Fibrillary Acidic Protein staining). The data set can be described thus: GFAP immunohistochemistry of lumbar spinal cord from CCI rats (astrocyte activation). Format: in vivo, rat. Conditions: 7.5 mg/kg ip BID for 5 days. From the text: Study of Attenuation of Glial Cell Activation in Ibudilast-Treated CCI Rats: At the end of the 5-day study, animals (4/group) from the CCI vehicle control or CCI ibudilast group were euthanized and lumbar spinal cord tissue was isolated and stained for astrocyte activation with an antibody reactive against Glial Fibrillary Acidic Protein (GFAP) as described in […] and J A DeLeo, Brain Research (2002) 956:294-301. FIG. 6 depicts a typical staining profile from CCI vehicle-treated animals. Enlarged (activated) astrocytes, typically observed in subjects with neuropathic pain (CCI rats in this case), are visible in the CCI group.

The nature of data set [4]: in vivo. Conditions: rat. The method, then: Pharmacokinetics. Plasma Ibudilast Concentrations Correlating with Efficacy: Dedicated pharmacokinetic studies in normal rats were performed with ibudilast dosing i.p. or p.o. in order to correlate drug plasma levels with changes in mechanical allodynia (i.e. neuropathic pain efficacy). Following dosing (time t=0), serial bleeding from n=3 rats/time point and 6 time points interspersed between 5 min and 6 hr was obtained, plasma was isolated, and ibudilast concentrations were determined by a HPLC and two-dimensional mass spectrometry (LC/MS/MS) method (described in Example 4) sensitive to ≦1 ng/ml. […] Moreover, pharmacokinetic-pharmacodynamic analyses involving PK parameters including Cmax, area under the curve (AUC), and elimination half-life (t1/2) indicated Cmax is an important parameter in establishing efficacy.
(§1) Tissue Concentration Analysis: A solution of ibudilast (Haorui) at 0.5 mg/ml in DMSO was used as the working stock. A solution of ibudilast at 0.5 mg/ml in DMSO was prepared using the powdered ibudilast provided with the study samples and used as the working stock. Calibration standards in plasma were prepared by diluting each 0.5 mg/ml stock 1 in 100 into rat plasma to 5000 ng/ml (5 μl+495 μl), then diluting further, to 2.29 ng/ml, by 3-fold serial dilution with plasma. Standards 3, 5 and 7 were used as low, mid and high QC samples, respectively.
(§2) Calibration standards, QC and plasma study samples were prepared for HPLC injection by precipitating 25 μl of plasma with 3× volumes (75 μl) of ice cold acetonitrile containing 50 ng/ml diphenhydramine and 100 ng/ml dextromethorphan as the internal standards. Tissue study samples were prepared for HPLC injection by adding 1 μl of water per mg of tissue plus 3× volumes (relative to water) of ice cold acetonitrile containing 50 ng/ml diphenhydramine and 100 ng/ml dextromethorphan as the internal standards, then homogenized with an electric homogenizer. Following centrifugation at 6100 g for 30 minutes, 40 μl of each supernatant was diluted with 200 μl of 0.2% formic acid in water and analyzed by the following LC/MS/MS conditions: • HPLC: Shimadzu VP System • Mobile Phase: 0.2% formic acid in water (A) and in methanol (B) • Column: 2×10 mm Peeke Scientific DuraGel G C18 guard cartridge • Injection Volume: 100 μl • Gradient: 5-95% B in 2 minutes after a 0.75 minute wash • Flow Rate: 400 μl/min • Mass Spectrometer: Applied Biosystems/MDS SCIEX API 3000 • Interface: TurboIonSpray (ESI) at 400° C. • Ionization Mode: Positive Ion • Q1/Q3 Ions: 231.2/161.2 for ibudilast Studies and Results

The subject of data set [5] is mechanical allodynia in rat Chung model. The data set can be described thus: von Frey test of mechanical allodynia in rat Chung model of neuropathic pain. Format: in vivo. The protocol:
Test Agents: Haorui and Sigma ibudilast was formulated as described above. Ibudilast was administered at 10 mg/kg twice daily, (3.7 ml/kg of 2.7 mg/ml in 35% PEG/saline) i.p. each morning (typically 8 am) and pm (typically 3 pm). Animals: Pathogen-free adult male Wistar rats (150-200 g; Elevage Janvier) were used in all experiments. Rats were housed in temperature (23+/−3° C.) and light (12:12 light: dark; lights on at 0700 hr) controlled rooms with standard rodent chow and water available ad libitum. Behavioral testing was performed during the light cycle. Chung model: Rats were anesthetized under isoflurane (4-5% induction and 2-3% maintenance in 100% oxygen) and an incision at the L4-S2 levels was performed to expose the left L5 and L6 spinal nerves. A ligature was tied tightly around each nerve. The wound was then sutured. The rats received an injection of clamoxil and were allowed to recover. Sham controls were subjected to the same surgical procedure except that the nerves were not ligated. […] Multi-day Study for Neuropathic Pain Efficacy: A 3-day efficacy study was undertaken wherein the animals (n=3-4/group for shams and 5/group for Chung animals) were administered 10 mg/kg ibudilast or 35% PEG/saline vehicle twice daily and mechanical allodynia was monitored at various time intervals post-dosing. […] A pre-dose reading was acquired each day in order to assess durability of efficacy.

For data set [6], the system named is mechanical allodynia in rat model of taxol-induced neuropathic pain. Kind of data set: von Frey test of mechanical allodynia in rat model of taxol-induced neuropathic pain. In kind it is in vivo. The protocol: Test Agents: Ibudilast was formulated as described above. Ibudilast was administered at 7.5 mg/kg (2.7 ml/kg of 2.8 mg/ml in 35% PEG/saline i.p. each morning (typically 8 am) and pm (typically 3 pm). Animals: Pathogen-free adult male Sprague-Dawley rats (280-350 g; Harlan Labs) were used in all experiments. Rats were housed in temperature (23+/−3° C.) and light (12:12 light: dark; lights on at 0700 hr) controlled rooms with standard rodent chow and water available ad libitum. Behavioral testing was performed during the light cycle. Taxol Model: Neuropathic pain was induced by administration of 4 i.p. injections on alternate days (Day 0, 2, 4, and 6) of 1 mg/kg taxol (Paclitaxel®, cumulative dose 4 mg/kg). Neuropathic pain onset was maximal around day 19 post taxol administration (Day 0). Ibudilast or vehicle control treatment initiated at either day 19 (treatment paradigm) or day 12 (prevention paradigm). Allodynia results were determined prior to the morning administration of vehicle or ibudilast. Behavioral Measures von Frey Test: The von Frey test was performed within the sciatic or saphenous innervation area of the hindpaws as previously described above for the CCI model. All testing was conducted in the am prior to the morning dose of ibudilast for that day. Multi-day Study for Neuropathic Pain Efficacy: 7.5 mg/kg Ibudilast was administered twice daily for 7 days starting day 20 after the first taxol dose (Day 0). Mechanical allodynia was assessed prior to the first dose of ibudilast each day. Prevention of Taxol-Induced Neuropathy: A second study was performed identical in nature to the multi-day study described above except that ibudilast or vehicle control administrations were initiated on day 12 just as allodynia was becoming clearly evident.

Data set [7] in a line: Rat ibudilast plasma PK and tissue distribution (plasma, muscle, brain, spinal cord). Format: in vivo. The method, then:
Test Agents: Ibudilast was prepared in 15% ethanol/saline. Drug stability and concentration were validated by HPLC/MS/MS.
Animals: Pathogen-free adult male Sprague-Dawley rats (280-350 g; Harlan Labs) were used in all experiments. Rats were housed in temperature (23+/−3° C.) and light (12:12 light: dark; lights on at 0700 hr) controlled rooms with standard rodent chow and water available ad libitum. Behavioral testing was performed during the light cycle.
PK Analysis: Rats (n=3/group) were administered 5 mg/kg ibudilast, i.p. and plasma, muscle, brain, and spinal cord were harvested at 5, 15, 60, 180, and 420 min post administration.
as §1
as §2, with “Tissue study samples were prepared for HPLC injection by adding 1 μl of water per mg of tissue plus 3× volumes (relative to water) of ice cold acetonitrile containing 50 ng/ml diphenhydramine and 100 ng/ml dextromethorphan as the internal standards, then homogenized with an electric homogenizer.” left out

The conditions of data set [8]: humans, cited from earlier work.
Data set [9] concerns activated microglia. Conditions: dose-dependent; Mizuno et al. 2004; cited from earlier work.
The conditions of data set [10]: administered systemically; Sugiyama et al. 1993; cited from earlier work.

On to `CC(C)C(=O)c1c(C(C)C)nn2ccccc12` [Ibudilast, 3-isobutyryl-2-isopropylpyrazolo[1,5-a]pyridine], for which, in data set [1] (21 mg/kg p.o. twice daily), the “days of treatment after which attenuation became durable (pm dosing to next day's pre-am test)” value was found to be 2 days. The “earliest time of attenuation of allodynia after the first dose” value in data set [1] (21 mg/kg p.o. twice daily) was 4 h. The “attenuation of allodynia, oral twice daily” value in data set [1] (21 mg/kg p.o. twice daily 2 days then 25.5 mg/kg 3 days, 35% PEG/saline) is “Attenuation of allodynia was observed”. Moreover, in data set [1] (50 mg/kg oral gavage once daily), the “days of dosing to durable efficacy lasting overnight” value is given as at most 7 days. Further, the “magnitude of allodynia, oral once daily” value in data set [1] (50 mg/kg oral gavage once daily, 10% HCO-60, 10% PEG400 in saline, following 2 days of dosing, shortly after morning dose) was “significantly attenuated the magnitude of allodynia”. Moreover, in data set [1] (2.5, 7.5 or 10 mg/kg i.p. twice daily, 1 week, significant at +2 hr post-administration), the “magnitude of allodynia (50% withdrawal threshold), multi-day study” value is “attenuated the magnitude of allodynia”. Further, in [1] (doses >2.5 mg/kg i.p. bid, within two days of regimen), the “time after treatment at which reversal of neuropathic pain was still evident” value was found to be 16 h. The “paw withdrawal thresholds in ibudilast sham animals” value in data set [1] (sham-operated rats, single i.p. 10-15 mg/kg) is given as “no changes in paw withdrawal thresholds”. Moreover, in data set [1] (single i.p. 10-15 mg/kg), the “time at which reduction in allodynia was apparent” value turned out to be 1 h. The “time of maximum reduction in allodynia” value in data set [1] (single i.p. 10-15 mg/kg) stood at 2 h. In data set [1] (single i.p. 10-15 mg/kg), the “time of return to baseline” value worked out at 16 h. Also, the “acute reduction in allodynia relative to CCI vehicle animals” value in [1] (single i.p. administration of 10-15 mg/kg, measured 1, 2, 4, 16 hr post-administration) was “showed a reduction in allodynia”. In addition, the “duration of adverse behavioral effects” value in data set [2] (i.p. doses >20 mg/kg in 35% PEG/saline) was “up to 1 hr”. For the same compound, in [2] (i.p. doses >20 mg/kg in 35% PEG/saline, volume </=5 ml/kg), the adverse behavioral effects result is listed as “produced adverse behavioral effects”. In addition, the tolerability result in [2] (rat, in vivo, ip, 15 mg/kg) is on record as “generally well tolerated”. For the same compound, the “glial cell activation as measured by GFAP staining” value in [3] was “Reduced glial cell activation”. In addition, the Cmax in [4] was at least 125 ng/mL; in data set [4] (ip, 2.5 mg/kg) it was 125 ng/mL; in data set [4] (ip, 7.5 mg/kg), 1710 ng/mL; in data set [4] (po, 21 mg/kg), 325 ng/mL; in [4] (po, 50 mg/kg) it was 387 ng/mL; in [7] (male, Sprague-Dawley, rat, plasma and CNS tissues (brain, spinal cord), ip, ~5 mg/kg i.p., 15% ethanol/saline, read-out: maximal concentration (Cmax) in plasma and CNS tissues), around 1000 ng/mL. The “time after treatment at which reversal of neuropathic pain was still evident (pre-dose reading)” value in data set [5] (10 mg/kg i.p. b.i.d., within two days of regimen) turned out to be 16 h. Besides, in data set [5] (10 mg/kg i.p. twice daily, 3 days), the “magnitude of allodynia (50% withdrawal threshold)” value is given as “attenuated the magnitude of allodynia”. The “prevention of taxol-induced neuropathy development” value in data set [6] (7.5 mg/kg i.p. BID initiated on day 12) was “prevented the further neuropathy development”. Further, in data set [6] (7.5 mg/kg i.p. twice daily), the “time to return to allodynic state after discontinuation” value was at most 1 days. For the same compound, in data set [6] (7.5 mg/kg i.p. twice daily for 7 days, measured prior to morning dose), the “magnitude of allodynia, treatment of established taxol neuropathy” value is listed as “attenuated the magnitude of allodynia; also recorded: statistically significantly different from vehicle control”. Further, in [7] (5 mg/kg i.p.), the tissue distribution entry was “well distributed to peripheral (e.g. muscle) and central (e.g. brain and spinal cord) tissues”. The half-life (usually the time in which the quantity being followed falls by half) in data set [7] (male, Sprague-Dawley, rat, ip, 5 mg/kg i.p., plasma, muscle, brain, spinal cord, read-out: elimination half-life in all tissue compartments) was 1.67 to 2.32 h. The “multi-dose steady state Cmax” value in data set [8] (10 mg BID or TID, Cai-Li et al. 2003) was 45 ng/mL. The “single dose Cmax” value in data set [8] (10 mg, Ketas Package Insert) was 25 ng/mL. Further, in data set [9], the “production of IL-10, NGF, GDNF and NT-4” value is given as “enhance”. Besides, the “production of nitric oxide (NO), reactive oxygen species, IL-1β, IL-6 and TNF” value in [9] was “suppress”. Moreover, in [10], the blood-brain barrier crossing result is “crosses the blood-brain barrier”.
Regarding `CN1CC[C@]23c4c5ccc(O)c4O[C@H]2[C@@H](O)C=C[C@H]3[C@H]1C5` [morphine], the “reversal of allodynia in comparison to vehicle control, combination study” value in data set [1] (7.5 mg/kg ibudilast ip bid alone or with 1 mg/kg morphine s.c., several days) is recorded as “greater than that by ibudilast”.
